Laboratory results taken from patent publication US20250082646A1, “OVARIAN ANTI-AGING PHARMACEUTICAL COMPOSITION AND USE THEREOF” (priority 2022, published 2025).

Assays:
[1] = test system: fertilized 2PN embryos of old mice; assay: Pre-implantation development of fertilized 2PN embryos from treated old mice; format: in vivo, mouse
Method: (§1) For in vivo hormone stimulation, the old mice were treated with the Example compound, and 12 hours later, 75 IU pregnant mare serum gonadotropin (PMSG: RP1782725000; BioVendor, Czech Republic) was injected into the mice. A control is a group administered only 751U PMSG. Female mice were superovulated by injecting hormones intraperitoneally at intervals of 48 hours. The administered hormones were PMSG (7.5 IU) and human chorionic gonadotropin (hCG: 668900221; LG Chem. Seoul, Korea: 7.5 IU). After secondary hormone treatment, female mice were mated with male mice (2:1 or 1:1). Modified pronuclear cells (2PNs) were obtained 24 hours after hCG injection.
In Experimental Example 2, the effect of fertilized 2PN embryo development on the ovaries of the old mice treated with Example Compound was evaluated.
27 pronuclear cells of the old mice (n=15) treated with Example Compound and 62 pronuclear cells of the old mice (n=15) not treated with Example Compound as a control were cultured. Afterward, the number of cells at each of 2-cell, 4-cell, 8-cell, morula, early blastocyst, and late blastocyst stages was measured using a microscope, and expressed as a percentage.

[2] = test system: Ptpn6, Fcer1g, Tyrobp, Slamf9, Clec4a3 mRNA; assay: RT-qPCR of immune system regulatory genes (tumor necrosis factor superfamily cytokine production) in ovaries; format: in vivo, mouse; conditions: old experimental group treated, FIG. 3B
Method: In this experiment, a change in the expression of immune system regulatory genes (genes involved with tumor necrosis factor superfamily cytokine production) was quantitatively evaluated using real-time quantitative PCR (RT-qPCR) according to the treatment of aged models with Example Compound.
RT-qPCR was performed on each ovary using the TRIzol protocol, total RNA was extracted from a lysate using the RNeasy mini kit (Qiagen Ltd.), and the extracted total RNA was reverse-transcribed using a Superscript kit (Invitrogen) containing a random hexamer to synthesize cDNA.
Gene expression levels were confirmed using primers and the SsoAdvanced Universal SYBR Green Supermix (Bio-Rad. US) in the CFX96 Touch Real-Time PCR detection system (Bio Rad, US).
For each gene tested, a comparative threshold cycle (CT) method that normalizes the accumulated PCR product to the reference gene beta-actin was used, and repeated three times.
The PCR product was loaded on a 2% agarose gel and stained with Safeview™ (Applied Biological Materials. Richmond, Canada), and the gel was visualized under UV light using a gel documentation system (WSE-6100 LuminoGraph; ATTO, Tokyo, Japan), and the product bands were analyzed by the analysis of intensity ratios using ImageJ software.

[3] = test system: old ovaries (GV oocytes); assay: Number of GV oocytes collected from ovaries after superovulation; format: in vivo, mouse; conditions: old ovaries treated vs old ovaries not treated; FIGS. 1B and 1C
Method: Female mice (young mice: 7-8 weeks old; old mice: 40 weeks or older) were superovulated by intraperitoneally injecting pregnant mare serum gonadotropin (PMSG: G4527, Sigma Aldrich: 7.5 IU). Germinal vesicle (GV) oocytes were collected from the ovaries 48 hours after PMSG injection. For zygotes, female mice were injected with PMSG, and 48 hours later, injected with hCG, and then placed overnight with BDF1 stud male mice, which were approximately 10 to 12 weeks old. The next day, plugs of the female mice were examined, and zygotes and two-cell embryos were collected from the oviducts 18 to 20 hours and 36 hours after hCG injection, respectively.
After inducing superovulation, the numbers of GV oocytes in the ovaries of the old mice and young mice treated with Example Compound were evaluated.
The measurement of the number of GV oocytes was performed by collecting mouse eggs from each group (the number of eggs of young mice: 15: the number of eggs of old mice: 30; and the number of eggs of old mice treated with Example Compound: 30), physically chopping the eggs to collect ovarian follicles, and isolating GV oocytes in the ovarian follicles to count the number of cells.

[4] = test system: ovaries of old mice; assay: Ovarian gene expression pattern by next generation sequencing (mRNA sequencing); format: in vivo, mouse; conditions: NGS; genes increased in the old group
Method: A major change in gene expression caused by treatment with Example Compound was confirmed through next generation sequencing (NGS).
mRNA sequencing was performed according to References. RNA was extracted using a TRIzol (15596026. Thermo Fisher) solution. Sequencing libraries were prepared according to the manufacturer's instructions using the TruSeq Stranded mRNA LT Sample Prep Kit (Illumina). Paired end 101 bp sequencing was performed using the Illumina platform (NovaSeq 6000, Illumina). The results of two experiments were obtained for each group.
According to the criteria (1st trimming, base quality<3, window size=4, mean quality=15; 2nd trimming: min length=36 bp), paired end read data was trimmed using Trimmomatic (Bolger et al., 2014). Using the HISAT2 program (Kim et al., 2019; Nat Biotechnol 37, 907-915, 2019), trimmed reads were mapped to the UCSC genome database. Also, the mapping results were quantified using StringTie (Pertea et al., 2015; Nat Biotechnol. 2015 March; 33(3): 290-295) and gene/transcript-based annotations (NCBI Annotation Release 108).
Differential expression gene analysis was performed using DESeq2 according to the criteria (baseMean counts>14, false discover rate (FDR)<0.1, and log 2FoldChange>1). […]

[5] = test system: longevity-related genes, steroidogenesis-related genes, primordial follicle factors, ovarian function factors; assay: RT-PCR of ovarian function-related genes in ovaries of old mice; format: in vivo, mouse
Source text: The expression of ovarian function-related genes in the ovaries of old mice treated with Example Compound was confirmed by reverse transcription-polymerase chain reaction (RT-PCR).
mRNA was extracted from oocytes using a TRIzol (TRIzol RNA, 15596026, Thermo Fisher) solution and subjected to RT-PCR. The PCR product was stained with SafeView™ (Applied Biological Materials, Richmond, Canada) and loaded on a 2% agarose gel. Additionally, the gel was visualized under UV light using a gel documentation system (WSE-6100 LuminoGraph; ATTO, Tokyo, Japan). The intensity ratios of the product bands were analyzed using the ImageJ software program.
The expression of primordial follicle factors, such as Nanog, Oct3/4, and p63, and ovarian function factors, such as AMH and BMP15, in the ovaries of the mice treated with Example Compound were analyzed by RT-PCR.
In FIGS. 4A and 4B, “Young” indicates a young mouse, “Old” indicates an old mouse, and “Old+Compound 1” indicates an old mouse treated with Example Compound.
In FIG. 4A, the upper left box indicates longevity-related genes, the lower left box indicates steroidogenesis-related genes, the upper right box indicates primordial follicle factors, and the lower right box indicates ovarian function factors.

[6] = test system: mouse ovaries stimulated with PMSG; assay: Histology (hematoxylin and eosin) of ovaries after PMSG stimulation in vivo: number of ovarian follicles; conditions: treated ovaries compared to the ovaries of the control; after hormonal stimulation; FIG. 1A
Method: In this experiment, as a control, young mice (7 to 9 weeks old, n=15), and as an experimental group, old mice (55 to 60 weeks old, n=30) were prepared. In the drawing, the experimental results of the young mice are indicated as ‘Young,’ and the experimental results of the old mice are indicated as ‘Old.’
as §1
In Experimental Example 1, the effect of treatment with Example Compound on mouse ovaries stimulated with PMSG in vivo was evaluated. Light microscopy imaging was performed on the ovaries of young mice, and old mice treated and not treated with Example Compound.
Each sample was fixed with 4% paraformaldehyde at room temperature for 30 minutes, and the fixed tissue was washed with PBS and embedded in paraffin with a thickness of 5 μm. […]

[7] = old mice treated, 27 pronuclear cells cultured
[8] = old mice treated vs old mice not treated

## O=S1(=O)CCN(Cc2cc(NC3CCOCC3)c3[nH]c(-c4ccccc4)cc3c2)CC1 [Example Compound, 5-[(1,1-dioxido-4-thiomorpholinyl)methyl]-2-phenyl-N-(tetrahydro-2H-pyran-4-yl)-1H-indol-7-amine]
[1]; at the morula, early blastocyst, and late blastocyst stages, old mice, FIG. 2
  embryo development rate higher than that of the control embryo: 20%
[1]; [7]
  early blastocyst rate: 51.85%
  embryo development rate at the morula stage: 55.56%
  late blastocyst rate: 51.85%
[2]
  mRNA expression levels of Ptpn6, Fcerlg, Tyrobp, Slamf9, and Clec4a3: lowered to levels similar to those of the young control
[3]
  total number of oocytes collected at the GV stage: significantly higher
[4]
  expression of Fcerlg, Slamf9, Clec4a3, Ptpn6, Tyrobp, Adipoq, Bcl3, Trem2, and Sash3 (TNF superfamily cytokine production DEGs): down-regulated
[5]; [8]
  expression levels of SOD2 and SIRT1 (longevity-related genes): higher
  expression levels of steroid production-related genes Edn2, Tbxa2r, Oxtr, and Adra1d: significantly increased
[5]; treated vs control not treated, FIGS. 4A and 4B
  mRNA expression of Oct3/4, Nanog, p63, Lhcgr, AMH, GDF9, BMP15, and Kid: significantly higher
[6]
  total number of ovarian follicles, including preantral follicles and antral follicles: significantly higher
